Source: ChEMBL document CHEMBL1201862, “PubChem BioAssay data set” (2004)
Activity calls are given as the source filed them.

What was measured:
[1] = Counterscreen for activators of the function of SWI/SNF related, matrix associated, actin dependent regulator of chromatin, subfamily a, member 2 (SMARCA2, BRM): Luminescence-based cell-based high throughput dose response assay to identify non-selective compounds using the VP16 reporter assay.; assay type: functional
[2] = target: SWI/SNF-related matrix-associated actin-dependent regulator of chromatin subfamily A member 2 (Homo sapiens, UniProt P51531); assay: Luminescence-based cell-based high throughput dose response assay to identify activators of the function of SWI/SNF related, matrix associated, actin dependent regulator of chromatin, subfamily a, member 2 (SMARCA2, BRM).; assay type: functional
SWI/SNF-related matrix-associated actin-dependent regulator of chromatin subfamily A member 2, sequence (P51531 whole entry): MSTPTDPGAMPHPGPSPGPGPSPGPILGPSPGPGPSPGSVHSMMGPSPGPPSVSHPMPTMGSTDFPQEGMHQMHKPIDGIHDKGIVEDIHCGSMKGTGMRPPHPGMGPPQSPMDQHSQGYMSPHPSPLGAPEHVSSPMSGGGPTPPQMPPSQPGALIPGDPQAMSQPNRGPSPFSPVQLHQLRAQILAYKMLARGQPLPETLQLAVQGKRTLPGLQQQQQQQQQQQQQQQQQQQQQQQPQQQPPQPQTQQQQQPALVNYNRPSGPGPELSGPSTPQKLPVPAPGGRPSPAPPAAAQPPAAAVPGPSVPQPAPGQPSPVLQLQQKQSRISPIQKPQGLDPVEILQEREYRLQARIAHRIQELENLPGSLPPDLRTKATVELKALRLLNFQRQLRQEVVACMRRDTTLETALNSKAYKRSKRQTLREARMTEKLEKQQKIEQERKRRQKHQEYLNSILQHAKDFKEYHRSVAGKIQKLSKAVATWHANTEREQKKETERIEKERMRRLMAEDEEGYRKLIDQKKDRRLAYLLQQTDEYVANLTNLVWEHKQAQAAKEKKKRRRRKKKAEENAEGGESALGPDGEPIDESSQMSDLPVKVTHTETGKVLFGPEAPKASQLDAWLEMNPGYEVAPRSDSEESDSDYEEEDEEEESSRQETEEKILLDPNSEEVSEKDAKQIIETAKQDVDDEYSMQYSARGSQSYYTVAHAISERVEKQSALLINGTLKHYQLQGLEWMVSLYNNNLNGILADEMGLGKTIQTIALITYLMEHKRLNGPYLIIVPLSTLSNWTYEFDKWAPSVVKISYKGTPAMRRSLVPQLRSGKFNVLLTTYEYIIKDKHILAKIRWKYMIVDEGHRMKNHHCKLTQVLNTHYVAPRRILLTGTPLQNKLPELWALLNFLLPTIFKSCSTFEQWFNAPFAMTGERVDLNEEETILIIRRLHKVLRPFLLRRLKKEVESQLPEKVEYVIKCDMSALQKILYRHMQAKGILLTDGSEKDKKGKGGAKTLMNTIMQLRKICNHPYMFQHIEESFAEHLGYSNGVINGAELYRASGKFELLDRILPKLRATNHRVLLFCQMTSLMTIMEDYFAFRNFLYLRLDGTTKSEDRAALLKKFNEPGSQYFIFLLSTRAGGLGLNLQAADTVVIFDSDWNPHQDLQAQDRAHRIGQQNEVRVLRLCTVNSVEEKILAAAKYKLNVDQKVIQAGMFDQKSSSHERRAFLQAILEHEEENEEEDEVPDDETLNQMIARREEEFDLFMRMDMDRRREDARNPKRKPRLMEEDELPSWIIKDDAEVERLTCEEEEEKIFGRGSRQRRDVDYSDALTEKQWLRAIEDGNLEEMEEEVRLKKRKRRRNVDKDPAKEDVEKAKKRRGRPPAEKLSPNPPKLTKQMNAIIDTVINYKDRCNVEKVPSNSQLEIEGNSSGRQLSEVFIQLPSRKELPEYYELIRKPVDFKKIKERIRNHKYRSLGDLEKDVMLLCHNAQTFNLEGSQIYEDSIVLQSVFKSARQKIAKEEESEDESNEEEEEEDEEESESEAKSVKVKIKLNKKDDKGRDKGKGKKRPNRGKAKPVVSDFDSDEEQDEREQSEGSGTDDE

[3] = target: Paired box protein Pax-8 (Homo sapiens, UniProt Q06710); assay: inhibitors of PAX8-driven TPO luciferase reporter, dose response, RMG-I cells, cherry-pick (AID 687027); assay type: functional, cell-based;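 also: luciferase reporter driven by Pax8 target thyroperoxidase promoter measured by SteadyGlo luminescence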
Paired box protein Pax-8, sequence (Q06710 whole entry): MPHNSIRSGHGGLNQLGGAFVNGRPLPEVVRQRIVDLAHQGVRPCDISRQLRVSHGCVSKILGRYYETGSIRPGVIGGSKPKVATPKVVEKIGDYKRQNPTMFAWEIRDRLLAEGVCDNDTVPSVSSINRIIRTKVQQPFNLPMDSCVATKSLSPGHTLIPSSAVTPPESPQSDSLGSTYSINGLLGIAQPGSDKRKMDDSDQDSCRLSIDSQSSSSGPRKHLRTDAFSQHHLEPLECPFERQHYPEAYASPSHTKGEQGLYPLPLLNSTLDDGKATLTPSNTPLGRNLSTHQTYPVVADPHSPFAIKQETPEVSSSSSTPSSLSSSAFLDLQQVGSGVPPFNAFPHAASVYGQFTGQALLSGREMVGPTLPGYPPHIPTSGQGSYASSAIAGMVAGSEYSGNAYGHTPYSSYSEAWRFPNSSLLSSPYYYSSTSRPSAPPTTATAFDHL

[4] = target: Fructose-bisphosphate aldolase (Mycobacterium tuberculosis, UniProt P9WQA3); assay: Fluorescence-based biochemical high throughput dose response assay for inhibitors of the fructose-bisphosphate aldolase (FBA) of M. tuberculosis.; assay type: functional
Fructose-bisphosphate aldolase, sequence (P9WQA3 whole entry): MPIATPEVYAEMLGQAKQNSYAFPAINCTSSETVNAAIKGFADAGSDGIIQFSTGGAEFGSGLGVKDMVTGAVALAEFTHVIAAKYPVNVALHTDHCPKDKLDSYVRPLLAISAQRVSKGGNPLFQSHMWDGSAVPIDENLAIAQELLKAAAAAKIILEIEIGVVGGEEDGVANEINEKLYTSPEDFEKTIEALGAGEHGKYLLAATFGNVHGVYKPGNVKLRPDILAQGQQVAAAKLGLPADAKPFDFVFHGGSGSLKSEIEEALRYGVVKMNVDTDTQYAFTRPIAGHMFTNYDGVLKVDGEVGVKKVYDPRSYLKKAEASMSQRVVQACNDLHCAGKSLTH

[5] = HEK293 cell viability, dose response, counter-screen for EBV LMP1 inhibitor project, dry powder, set 2 (AID 624374); assay type: functional
[6] = HepG2 cell cytotoxicity, dose response, cytotoxicity control, plate reader, cherry-pick, antagonist series (AID 743416); assay type: functional, cell-based
[7] = A549 cell cytotoxicity, dose response, cytotoxicity control, plate reader, cherry-pick, antagonist series (AID 743412); assay type: functional, cell-based
[8] = system: INS1; assay: beta cell apoptosis inhibitors, cytokine rescue, dose response, luminescence, retest (AID 449756); assay type: functional, cell-based; details: Rattus norvegicus;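 also: cell death triggered by IL-1 beta plus TNF-alpha plus IFN-gamma mixture; protective hits raise ATP signal compared with cytokine alone wells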
[9] = cytotoxicity in HEK-293T cells, dose response, cytotoxicity control for BCR NF-kB inhibitor project, luminescence, B-cell screen hits (AID 489021); assay type: functional, cell-based;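 also: HEK-293T cells carrying an NF-kB luciferase reporter; cells exposed to compound for about 14 hours before viability readout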
[10] = CEM21 lymphoblast cell cytotoxicity, dose response, cytotoxicity control for viral fusion inhibitor project, CellTiter-Glo luminescence, cherry-picked (AID 652042); assay type: functional, cell-based;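 also: potency for signal decrease meaning cytotoxicity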
[11] = LGR2 antagonists, dose response, cell-based, HEK293, CRE-luciferase reporter, cherry pick, set 2 (AID 743343); assay type: functional;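 also: transfected cells were stimulated with diluted bursicon conditioned medium after compound addition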
[12] = HEK293 cell cytotoxicity, dose response, cytotoxicity control, plate reader, cherry-picked samples (AID 743446); assay type: functional, cell-based
[13] = off-target signal loss in HeLa-CEM21 co-culture – HeLa F-luc CTL cells, cherry-picked, counter-screen for HIV-1 Env fusion inhibitor project, dose response (AID 652040); assay type: functional, cell-based;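 also: potency for signal decrease marking cytotoxic or nonspecific inhibition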
[14] = inhibitors of clade B AD8 Env fusion, dose response, cell-based, cherry-pick (AID 652062); assay type: functional;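 also: luciferase signal from cell-cell fusion driven by HIV-1 clade B AD8 Env; potency is for inhibitors of fusion seen as a drop in luminescence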
[15] = inhibitors of HIV Env-driven cell fusion, dose response, cherry-pick (AID 652057); assay type: functional, cell-based
[16] = MC4R antagonists, dose response, counter-screen for LGR2 antagonist project, cell-based, plate reader, cherry pick (AID 743444); assay type: functional;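 also: transfected HEK 293 cells stimulated with alpha-MSH peptide; potency of inhibitors of the alpha-MSH evoked signal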
[17] = ZM109 Env clade C HIV-1 fusion inhibitors, dose response, HeLa effector, CEM target cells, luciferase, cherry-pick (AID 652058); assay type: functional, cell-based
[18] = target: Tyrosine-protein phosphatase non-receptor type 11 (Homo sapiens, UniProt Q06124); assay: SHP2 phosphatase inhibition, dose response, selectivity assay for STEP inhibitor project, biochemical (AID 602367); assay type: functional; details: read-out: IC50_Mean
Tyrosine-protein phosphatase non-receptor type 11, sequence (Q06124 whole entry): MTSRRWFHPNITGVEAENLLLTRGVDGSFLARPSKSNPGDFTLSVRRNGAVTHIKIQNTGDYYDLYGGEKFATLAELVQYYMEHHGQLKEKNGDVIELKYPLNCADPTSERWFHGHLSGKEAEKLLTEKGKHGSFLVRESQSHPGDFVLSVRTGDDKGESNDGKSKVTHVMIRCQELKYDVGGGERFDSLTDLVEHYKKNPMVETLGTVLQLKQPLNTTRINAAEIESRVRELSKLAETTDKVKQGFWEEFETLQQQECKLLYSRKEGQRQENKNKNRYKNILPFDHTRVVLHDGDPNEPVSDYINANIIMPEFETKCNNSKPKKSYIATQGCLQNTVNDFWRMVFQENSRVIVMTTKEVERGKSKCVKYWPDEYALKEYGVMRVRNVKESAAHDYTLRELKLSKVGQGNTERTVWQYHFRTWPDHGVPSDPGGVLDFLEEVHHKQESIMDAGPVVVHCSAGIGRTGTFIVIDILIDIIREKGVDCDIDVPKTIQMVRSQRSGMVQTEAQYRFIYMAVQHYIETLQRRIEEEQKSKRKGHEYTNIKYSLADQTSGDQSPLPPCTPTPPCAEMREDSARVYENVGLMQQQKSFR

[19] = target: Dual specificity protein phosphatase 3 (Homo sapiens, UniProt P51452); assay: VHR phosphatase inhibition, dose response, selectivity assay for STEP inhibitor project, biochemical (AID 602374); assay type: functional; details: read-out: IC50_Mean
Dual specificity protein phosphatase 3, sequence (P51452 whole entry): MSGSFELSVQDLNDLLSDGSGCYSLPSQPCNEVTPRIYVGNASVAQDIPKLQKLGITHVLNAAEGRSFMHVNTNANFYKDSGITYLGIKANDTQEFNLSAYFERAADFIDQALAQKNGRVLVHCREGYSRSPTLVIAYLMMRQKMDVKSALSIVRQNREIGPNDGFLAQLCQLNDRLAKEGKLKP

[20] = target: Tyrosine-protein phosphatase non-receptor type 5 (Homo sapiens, UniProt P54829); assay: STEP phosphatase inhibitors, confirmation, biochemical, fluorescence intensity, uHTS hits (AID 602372); assay type: functional; details: read-out: IC50_Mean
Tyrosine-protein phosphatase non-receptor type 5, sequence (P54829 whole entry): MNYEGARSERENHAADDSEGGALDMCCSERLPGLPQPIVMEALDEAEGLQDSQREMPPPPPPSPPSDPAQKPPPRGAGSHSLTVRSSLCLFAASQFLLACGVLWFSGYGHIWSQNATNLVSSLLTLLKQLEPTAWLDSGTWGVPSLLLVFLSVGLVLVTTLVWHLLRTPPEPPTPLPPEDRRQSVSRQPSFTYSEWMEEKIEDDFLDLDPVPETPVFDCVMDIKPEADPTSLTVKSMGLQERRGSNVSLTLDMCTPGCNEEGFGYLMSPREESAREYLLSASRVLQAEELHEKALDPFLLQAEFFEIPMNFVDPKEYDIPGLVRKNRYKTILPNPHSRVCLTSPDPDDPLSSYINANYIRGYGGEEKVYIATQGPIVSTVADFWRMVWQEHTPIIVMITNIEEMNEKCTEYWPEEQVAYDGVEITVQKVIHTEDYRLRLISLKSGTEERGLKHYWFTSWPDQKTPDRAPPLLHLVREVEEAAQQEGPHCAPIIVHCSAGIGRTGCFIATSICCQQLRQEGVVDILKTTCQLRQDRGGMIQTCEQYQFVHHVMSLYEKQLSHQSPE

[21] = target: T1, Tyrosine-protein phosphatase non-receptor type 22 (Homo sapiens, UniProt Q9Y2R2); assay: PTPN22 phosphatase inhibition, dose response, selectivity assay for STEP inhibitor project, biochemical (AID 624241); assay type: functional
T1 sequence (Q9Y2R2 whole entry): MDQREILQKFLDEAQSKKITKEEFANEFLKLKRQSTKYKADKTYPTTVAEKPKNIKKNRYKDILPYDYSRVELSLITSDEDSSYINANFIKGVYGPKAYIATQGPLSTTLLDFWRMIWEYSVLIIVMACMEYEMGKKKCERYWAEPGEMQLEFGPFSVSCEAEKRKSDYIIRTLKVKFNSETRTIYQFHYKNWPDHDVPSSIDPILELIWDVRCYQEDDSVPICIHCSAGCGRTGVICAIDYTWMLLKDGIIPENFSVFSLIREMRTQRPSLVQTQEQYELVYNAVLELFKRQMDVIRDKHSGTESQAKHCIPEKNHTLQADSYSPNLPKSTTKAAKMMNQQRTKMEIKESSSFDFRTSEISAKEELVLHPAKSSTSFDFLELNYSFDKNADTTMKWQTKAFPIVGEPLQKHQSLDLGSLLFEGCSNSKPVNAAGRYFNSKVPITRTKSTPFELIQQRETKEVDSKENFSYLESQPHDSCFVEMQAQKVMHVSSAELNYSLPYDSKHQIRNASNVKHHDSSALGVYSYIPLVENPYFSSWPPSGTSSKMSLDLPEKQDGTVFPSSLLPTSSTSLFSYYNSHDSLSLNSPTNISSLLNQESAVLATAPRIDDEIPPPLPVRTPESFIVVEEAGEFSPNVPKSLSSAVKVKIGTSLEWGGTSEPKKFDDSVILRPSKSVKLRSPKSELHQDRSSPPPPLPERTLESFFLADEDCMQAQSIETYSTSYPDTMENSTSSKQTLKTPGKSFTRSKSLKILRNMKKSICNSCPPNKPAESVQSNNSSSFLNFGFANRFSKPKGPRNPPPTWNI

[22] = HeLa cell cytotoxicity, dose response, cytotoxicity control for MgcRacGAP inhibitor project (AID 624300); assay type: functional
[23] = target: Glucose-6-phosphate 1-dehydrogenase (Homo sapiens, UniProt P11413); assay: human G6PD enzyme inhibitors, dose response, selectivity assay for P. falciparum G6PD inhibitor project, biochemical, fluorescence (AID 504792); assay type: functional
Glucose-6-phosphate 1-dehydrogenase, sequence (P11413 whole entry): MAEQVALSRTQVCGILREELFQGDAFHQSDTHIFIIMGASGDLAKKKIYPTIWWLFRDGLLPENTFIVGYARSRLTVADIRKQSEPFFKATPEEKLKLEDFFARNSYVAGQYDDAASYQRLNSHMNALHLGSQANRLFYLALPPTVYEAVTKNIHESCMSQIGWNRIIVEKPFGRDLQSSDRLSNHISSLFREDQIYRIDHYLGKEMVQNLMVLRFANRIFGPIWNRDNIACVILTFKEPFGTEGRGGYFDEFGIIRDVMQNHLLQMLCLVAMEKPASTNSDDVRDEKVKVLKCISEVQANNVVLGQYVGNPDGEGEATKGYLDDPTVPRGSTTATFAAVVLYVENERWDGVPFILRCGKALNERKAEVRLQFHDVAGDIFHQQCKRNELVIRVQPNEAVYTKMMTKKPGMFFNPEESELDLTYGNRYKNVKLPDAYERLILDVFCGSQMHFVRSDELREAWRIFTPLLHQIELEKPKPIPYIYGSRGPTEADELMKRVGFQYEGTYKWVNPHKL

[24] = HEK293T cytotoxicity, dose response, cytotoxicity control for miR-122 modulator project, cell-based, inhibitor set, cherry-pick, set 2 (AID 720697); assay type: functional
[25] = target: T2, Aminopeptidase N (Plasmodium falciparum FcB1/Columbia, UniProt O96935); assay: P. falciparum M1AAP inhibitors, biochemical, fluorogenic H-Leu-NHMec substrate, 1536-well (AID 1445); parameters: species or system Plasmodium falciparum 3D7, 3D7
T2 sequence (O96935 whole entry): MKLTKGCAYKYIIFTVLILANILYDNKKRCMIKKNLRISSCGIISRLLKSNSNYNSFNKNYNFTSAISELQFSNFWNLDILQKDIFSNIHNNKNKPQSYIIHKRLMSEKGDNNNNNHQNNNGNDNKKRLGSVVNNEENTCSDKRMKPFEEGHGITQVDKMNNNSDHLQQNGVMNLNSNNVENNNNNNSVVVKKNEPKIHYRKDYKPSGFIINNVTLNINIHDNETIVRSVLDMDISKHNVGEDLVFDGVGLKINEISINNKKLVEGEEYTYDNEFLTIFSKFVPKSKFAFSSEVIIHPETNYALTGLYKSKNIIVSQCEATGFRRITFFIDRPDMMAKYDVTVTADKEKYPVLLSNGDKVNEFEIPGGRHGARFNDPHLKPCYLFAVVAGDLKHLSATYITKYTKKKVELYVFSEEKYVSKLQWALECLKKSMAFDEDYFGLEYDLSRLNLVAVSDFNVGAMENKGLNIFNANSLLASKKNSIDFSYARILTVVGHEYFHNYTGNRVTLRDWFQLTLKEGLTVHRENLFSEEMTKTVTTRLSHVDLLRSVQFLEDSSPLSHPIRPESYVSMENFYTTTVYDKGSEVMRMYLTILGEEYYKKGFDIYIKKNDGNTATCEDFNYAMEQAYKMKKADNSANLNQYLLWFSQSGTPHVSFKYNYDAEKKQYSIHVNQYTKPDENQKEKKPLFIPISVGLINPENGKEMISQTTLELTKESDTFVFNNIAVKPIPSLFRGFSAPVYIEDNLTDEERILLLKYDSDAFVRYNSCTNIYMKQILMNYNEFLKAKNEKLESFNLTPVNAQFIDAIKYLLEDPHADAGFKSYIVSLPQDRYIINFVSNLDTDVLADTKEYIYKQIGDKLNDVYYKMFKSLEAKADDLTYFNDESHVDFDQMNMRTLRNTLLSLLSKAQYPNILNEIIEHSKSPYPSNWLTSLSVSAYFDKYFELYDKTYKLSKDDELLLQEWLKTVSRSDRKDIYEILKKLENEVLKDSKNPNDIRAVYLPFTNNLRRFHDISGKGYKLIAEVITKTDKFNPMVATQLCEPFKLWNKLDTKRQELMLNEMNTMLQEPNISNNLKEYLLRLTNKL

[26] = miR-122 activators in hepatoma reporter cells, dose response, cell-based, Huh7 psiCHECK-miR122, Renilla luciferase, cherry-picked (AID 651956); assay type: functional;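 also: huh7 hepatoma cells stably carrying a psiCHECK-2 miR-122 sensor plasmid; renilla luciferase signal reporting endogenous miR-122 activity after 48 h compound exposure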
[27] = system: A549; assay: A549 cell toxicity, dose response, cytotoxicity control, plate reader, cherry-pick samples (AID 687028); assay type: functional, cell-based; details: Homo sapiens
[28] = target: Beta-lactamase (Salmonella choleraesuis (strain SC-B67), UniProt Q5J463); assay: Epi-absorbance-based counterscreen for selective VIM-2 inhibitors: dose response biochemical high throughput screening assay to identify inhibitors of TEM-1 serine-beta-lactamase.
Beta-lactamase (Salmonella choleraesuis (strain SC-B67), UniProt Q5J463), sequence (Q5J463 whole entry): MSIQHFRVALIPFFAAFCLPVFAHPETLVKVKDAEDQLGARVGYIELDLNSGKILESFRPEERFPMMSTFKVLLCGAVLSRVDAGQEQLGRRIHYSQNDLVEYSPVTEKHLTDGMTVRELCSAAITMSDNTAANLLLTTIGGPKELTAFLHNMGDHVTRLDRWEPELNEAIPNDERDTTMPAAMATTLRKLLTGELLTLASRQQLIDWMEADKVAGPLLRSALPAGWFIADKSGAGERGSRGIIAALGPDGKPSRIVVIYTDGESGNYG

[29] = target: T3, Beta-lactamase (Pseudomonas aeruginosa, UniProt Q79MP6); assay: […] counterscreen for selective VIM-2 inhibitors: dose response biochemical high throughput screening assay to identify inhibitors of IMP-1 metallo-beta-lactamase.
T3 sequence (Q79MP6 whole entry): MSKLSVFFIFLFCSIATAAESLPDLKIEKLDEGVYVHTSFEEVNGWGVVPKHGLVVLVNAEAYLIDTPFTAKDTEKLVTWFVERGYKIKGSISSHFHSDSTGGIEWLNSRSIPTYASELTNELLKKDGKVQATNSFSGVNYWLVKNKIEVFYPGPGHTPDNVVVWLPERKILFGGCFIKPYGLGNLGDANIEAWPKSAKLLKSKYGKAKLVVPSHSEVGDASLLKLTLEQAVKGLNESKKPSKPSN

[30] = target: T3, Beta-lactamase; assay: IMP-1 metallo-beta-lactamase inhibitors, dose response, selectivity assay for VIM-2 inhibitor project, biochemical, epi-absorbance (AID 1920)
[31] = system: Vero; assay: Vero cell toxicity, dose response, cytotoxicity control, plate reader, cherry-pick samples (AID 687020); assay type: functional, cell-based; details: Chlorocebus sabaeus
[32] = inhibitors of LMP1-driven NF-kB reporter, dose response, cell-based, EBV LMP1, luciferase, dry powder, set 2 (AID 624361); assay type: functional
[33] = inhibitors of TNFa-stimulated NF-kB luciferase reporter, dose response, selectivity assay for EBV LMP1 NF-kB inhibitor project, HEK293 LMP1 reporter cells, dry powder, set 2 (AID 624369); assay type: functional
[34] = LMP1-driven NF-kB reporter inhibition, dose response, cell-based, luciferase reporter, luminescence, dry powder, set 2 (AID 624376); assay type: functional
[35] = target: Potassium channel subfamily K member 9 (Homo sapiens, UniProt Q9NPC2); assay: TASK3 (KCNK9) channel inhibitors, thallium flux, SAR follow-up, selectivity assay for TASK1 inhibitor project, cell-based, FluxOR thallium flux, concentration-response (AID 652211); assay type: functional;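 also: potency is for inhibitors of the channel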

CN(C)c1ncnc2c1nnn2C1OC(CO)C(O)C1O (stereo not given)
EC50 [1]: > 91.2 µM (inactive)
EC50 [2]: > 91.2 µM (inactive)
AC50 [3]: < 0.26 µM (active)

CC(=O)NN1C(=O)c2ccccc2NC1c1ccccn1 (stereo not given)
IC50 [4]: 3.49 µM (active)

C[C@@H]1CN([C@@H](C)CO)C(=O)c2c(c3ccccc3n2C)-c2ccccc2CO[C@H]1CN(C)C(=O)Nc1ccc(F)cc1
AbsAC35 [5]: 204.77 µM

CC(C)CN(C(=O)COC(=O)C12CC3CC(CC(C3)C1)C2)c1c(N)n(Cc2ccccc2)c(=O)[nH]c1=O
AC50 [6]: 13.7 µM (active)
AC50 [7]: 8.64 µM (active)
AC50 [8]: 3.62 µM (active)
IC50 [9]: > 80 µM (inactive)
AC50 [10]: 13.1 µM (active)
AC50 [11]: 43.8 µM (active)
AC50 [12]: 16.6 µM (active)
AC50 [13]: 17 µM (active)
AC50 [14]: 18.3 µM (active)
AC50 [15]: 9.69 µM (active)
AC50 [16]: 30.2 µM (active)
AC50 [17]: 11.4 µM (active)

SC1=NC2=C(CCCC2=C2SCCS2)C(c2ccccc2)N1 (stereo not given)
IC50 [18]: 5.27 µM (active)
IC50 [19]: 1.23 µM (active)
IC50 [20]: 22.6 µM (inactive)
IC50 [21]: > 100 µM (inactive)

O=[N+]([O-])c1cnc(Sc2ccncn2)c([N+](=O)[O-])c1
CC50 [22]: 34.1 µM (active)
IC50 [23]: > 80 µM (inactive)

Cc1cc(NS(=O)(=O)c2ccc(NC(=O)C(CC(C)C)N3C(=O)c4ccccc4C3=O)cc2)nc(C)n1 (stereo not given)
AC50 [24]: 8.51 µM (active)
IC50 [25]: 38 µM (active)
AC50 [26]: 49.8 µM (active)

CC1(C(=O)NCc2cccs2)Cc2c(-c3cccc(C(F)(F)F)c3)ccnc2O1 (stereo not given)
AC50 [27]: 17.6 µM (active)

O=C(CSc1nnc(NC(=O)C2CC2)s1)NCc1ccccc1Cl
IC50 [28]: > 59.6 µM (inactive)
IC50 [29]: > 59.6 µM (inactive)
IC50 [30]: > 59.6 µM (inactive)

CCCCC[C@H]1CN(CCc2ccccc2)C(=O)[C@@H]1CC(=O)NCc1ccc(OC)cc1
AC50 [31]: 33.9 µM (active)

CC(C)NC(=O)N1[C@H](CO)[C@H](c2ccc(C#CC3CCCCC3)cc2)[C@@H]1C#N
AbsAC35 [32]: 53.56 µM
AbsAC35 [33]: 202.7 µM
AbsAC35 [34]: 62.28 µM

Cc1cccc(C(=O)Nc2cccc(NC(=O)c3ccccc3Cl)c2)c1
IC50 [35]: 19.8 µM (active)
